Series [1] in a line: Uptake by polymer, elution from polymer and tissue retention compared with forskolin. The conditions noted are these: compared to forskolin.
Series [2] is described as follows: Etretinate delivery to vessel wall from coated stent (similar model). The settings on record: rabbit.
The nature of series [3]: In vitro drug release from polyurethane-coated stents, coils or films. The conditions noted are these: for initial release rate / release rate: release from polyurethane, Table 1A; for Total: total content.
Experimental: Drug incorporation into polyurethane-coated articles
Nitinol stents or stainless steel coils with surface area similar to nitinol stents were coated with Tecoflex 85A™ polyurethane to a thickness of about 50 microns in accordance with the manufacture's instructions for coating metal surfaces.
The drug loading procedure is carried out as follows: The desired compound is dissolved in a solution containing 3 parts ethanol and 1 part tetrahydrofuran (100 mg/ml for rhodamine B and 50 mg/ml for fluorescein dilaurate and forskolin).
When a hydrophilic compound such as hirulog was loaded in the polyurethane,the polyurethane was first loaded with sphingosine or any charged lipophilic molecule as described above. With this modification, the polyurethane will swell in organic solutions containing up to 10% water. The desired compound was then dissolved as 50 mg/ml in ethanol/tertrahydrofuran/water in a ratio of 65/25/1-20. The water content will vary according to the solubility of the desired compound in this solvent system.
After incubation, all stents, coils, and films were dried overnight at 40° C. at reduced pressure. To evaluate the ability of a charged lipid soluble drug to facilitate uptake and release of a water soluble compound, thin films containing 20 mg of polyurethane with or without 1 mg of sphingosine were produced by pour plating and drying overnight at 40° C. under reduced pressure. The films were then incubated in a solution of fluorescein disodium, a water soluble dye. After incubation, films were dried as described above.
After a 15 minute preincubation (wash step), stents, coils, or films were incubated for 2-3 days in 2 ml. of phosphate buffered saline (pH=7.4) or 5% bovine serum albumin in PBS at 37° C. in a shaking water bath. […] At the end of incubations, the polyurethane was dissolved in tertrahydrofuran and an aliquot analyzed to determine the quantity of compound remaining in the polymer. […] Solutions containing fluorescein dilaurate required addition of 200 μl of 10M sodium hydroxide to convert the fluorescein dilaurate into its colored form (release the two 16-carbon fatty acid dilaurate chains from the water soluble fluorescein molecule). Forskolin content was determined by scintillation counting.
Series [4] can be described thus: Water solubility (in words). It counts as physicochemical.
Series [5] deals with carotid artery. Briefly: Rabbit carotid crush injury, low flow thrombosis model. Type of series: in vivo, New Zealand white rabbits. The source says:
To evaluate the thrombogenicity of polyurethane stent coatings, a rabbit carotid crush injury, low flow thrombosis model was developed. Briefly, New Zealand white rabbits (n=14) underwent anesthesia with ketamine and xylazine followed by surgical exposure of the right carotid and left femoral arteries. A 6 french sheath was placed in the left femoral artery and a 2.0 mm transit time flow probe (Transonics) was placed in the distal carotid artery. No anticoagulant was given. Repeated crush injury with a plastic coated clamp was performed at similar force for fifteen times over a one cm. distance usually producing a small decrement in flow rate. After 5 minutes, a bare or polyurethane coated nitinol stent was advanced to straddle the area of injury and balloon expanded. After a 15 minute equilibration period during which a 3.0 mm balloon occluder was placed proximal to the stent, the occluder was inflated to reduce flow to 4 ml/min. (40% of baseline). Continuous pressure monitoring via pressure transducer placed on line in the occluder inflation system was performed to ensure maintenance of consistent occlusion.
Continuous carotid artery flow and mean blood pressure were recorded by strip chart recorder. If the flow remained <0.5 ml/min, for 5 minutes, the artery was considered occluded and experiment terminated. […] After euthanasia, the artery was removed and cut longitudinally with a scalpel. The polyurethane coating was visually inspected for defects. Presence of white or red thrombus was also noted.

The subject of series [6] is carotid artery. Briefly: Carotid artery flow after stent delivery. The conditions noted are these: 10.3±4.2 ml/min before. Type of series: in vivo, New Zealand white rabbits. Here is the method: (§1) For these experiments, nitinol stents were coated with Tecoflex™, to a thickness of about 50-100 microns, and then incubated in a solution containing unlabelled and tritiated forskolin with a specific activity of 25 μCi/mg. Resulting stents contained approximately 1.5 mg. of forskolin in approximately 20 mg of 50-100 micron thick polymer matrix coating.

Series [7] concerns carotid artery. Also noted: species or system New Zealand white rabbits. The settings on record: rabbit, in vivo. Here is the method: as §1
(§2) Instantaneous blood release rates were calculated by the following formula using the conservation of mass principle: [formula] where dM=change in mass, dT=change in time, M=mass, Q=flow, C1=upstream concentration, and C2=downstream concentration. Scintillation counts were then adjusted for measured background and efficiency. The amount of forskolin present was calculated by comparison of tissue activity to a 25 uCi/mg standard. For comparison of tissue and blood forskolin concentrations, blood levels were divided by specific gravity of rabbit blood (1.050 g/ml). Statistical analysis to assess differences between the multiple sites of the tissue samples was by one-way analysis of variances (ANOVA). If significant differences were found (p<0.05), pairwise comparisons were then performed using the t-test within ANOVA corrected for multiple comparisons (Bonferoni/Least Significant Difference tests).

Details of series [8]: species or system New Zealand white rabbits. The settings on record: rabbit. How it is done: as §1, §2
For the next series, the system named is intimal hyperplasia. The settings on record: polyvinyl alcohol based polymer beads, perivascular tissue, rats; cited from earlier work.
Series [9] concerns thrombosis on the catheter. The settings on record: released from intravascular catheters; cited from earlier work.
Where [10] appears, read: Film + SPH (sphingosine), n = 2, buffer not given.
Where [11] appears, read: Film without sphingosine, n = 2, buffer not given.

Entries after “also recorded” stand apart in the source; their conditions may differ.

For the compound `CCOC(=O)/C=C(C)/C=C/C=C(C)/C=C/c1c(C)cc(OC)c(C)c1C` [Etretinate], in series [1], the “elution rate from the polymer” value is listed as “decreased elution rate from the polymer”, the “tissue retention” value is reported as “increased tissue retention” and the “uptake by the polymer” value was “increased uptake by the polymer”. This compound yielded a concentration at 72 h in series [2] (vessel wall) of 185000 ng/g. For the same compound, in [2] (vessel wall media), the concentration at 24 h came out at 250000 ng/g.

Consider `CCCCCCCCCCCC(=O)Oc1ccc2c(c1)Oc1cc(OC(=O)CCCCCCCCCCC)ccc1C21OC(=O)c2ccccc21` [Fluorescein dilaurate, fluorescein dilaurate], for which, in [3] (Coil, 5% BSA, n = 1), the “Release Rate Day 1” value came out at 3.4 µg/h and the “Release Rate Day 2” value amounted to 2.3 µg/h. In series [3] (Film, 5% BSA, n = 2), the “Release Rate Day 1” value is 4.6 µg/h and the “Release Rate Day 2” value is 3.7 µg/h. The “initial release rate / release rate” value in [3] was “required 5% albumin to promote release”. Also, the “water solubility” value in [4] is given as “insoluble in water”.

Regarding `O=C1OC2(c3ccc(O)cc3Oc3cc(O)ccc32)c2ccccc21` [Fluorescein disodium, fluorescein disodium], the “Release Rate Day 1” value in series [3] (setting [10]) worked out at 16.0 µg/h; in series [3] (setting [11]), 4.0 µg/h. Moreover, the “Release Rate Day 2” value came out at 4.0 µg/h in [3] (setting [10]) and 1.8 µg/h in series [3] (setting [11]). In addition, the “Release Rate Day 3” value in series [3] (setting [10]) turned out to be 2.0 µg/h; in series [3] (setting [11]), 1.8 µg/h. In addition, the Total stood at 1.1 mg in series [3] (Film + SPH (sphingosine), n = 2) and 0.3 mg in [3] (Film without sphingosine, n = 2). The “total content and delivery rate” value in series [3] (with the addition of sphingosine (SPH) to the matrix) is given as “improved total content; also recorded: subsequently higher delivery rate”. Also, the “water solubility” value in series [4] is given as “water soluble”.

Take `C=C[C@@]1(C)CC(=O)[C@]2(O)[C@@]3(C)[C@@H](O)CCC(C)(C)[C@@H]3[C@H](O)[C@H](OC(C)=O)[C@@]2(C)O1` [Forskolin]: in [3] (Stents, PBS, n = 3), the “Release Rate Day 1” value was 3.8 µg/h, the “Release Rate Day 2” value was 3.9 µg/h, the “Release Rate Day 3” value stood at 1.6 µg/h and the Total came to 4.4 mg. Also, the “in vitro release rate” value in series [3] (in vitro, compared with in vivo) was 0.5 µg/min. Besides, in series [3], the “initial release rate / release rate” value is on record as “slower release rate”. The “thrombosis of the stented segment” value in the series with carotid artery [5] (compared to uncoated and coated stents) is reported as “prevented thrombosis of the stented segment”. Also, the “effect on TCF and TTO” value in the series with carotid artery [5] (forskolin impregnated into the polyurethane) is “remarkably increased the time to cyclic flow (TCF) and time to occlusion (TTO)”. Also, the “Time to Cyclic Flow (TCF)” value in the series on carotid artery [5] (n = 5, p < 0.0001 compared to coated and uncoated (uncoated 16 ± 13, polymer coated 27 ± 17)) was 208 ± 71 min. For the same compound, the “Time to Occlusion (TTO)” value in the series with carotid artery [5] (n = 5, uncoated 19 ± 18, polymer coated 54 ± 27) is listed as over 240 min. In the series on carotid artery [5] (number of forskolin impregnated stents, n = 5), the “stents exhibiting cyclic carotid blood flow” value was “one”. Besides, the “visual inspection of thrombus” value in the series on carotid artery [5] (uncoated: mixed red and white thrombus, coated: predominately white thrombus) is listed as “red thrombus only; also recorded: Absence of platelet rich white thrombus”. In addition, the “carotid artery flow at 1 min” value in the series with carotid artery [6] (1 min after stent delivery, p<0.005) was found to be 15.9 ± 2.6 mL/min. For the same compound, the “carotid artery flow at 60 min” value with carotid artery [6] (60 min after stent delivery, p<0.0001) amounted to 19.6 ± 4.4 mL/min. Besides, the “water solubility” value in series [4] was “less soluble in aqueous solutions”. Besides, in the series with carotid artery [7], the “concentration in adventitia overlying the stent relative to blood” value is reported as 360 times, the “concentration in adventitia overlying the stent relative to contralateral artery” value is reported as 305 times, the “concentration in media overlying the stent relative to blood” value was determined as 450 times and the “concentration in media overlying the stent relative to contralateral artery” value came out at 385 times. Further, in the series on carotid artery [7], the “forskolin levels in vessel proximal to, overlying and distal to stent” value is given as “significant levels of forskolin”; the “radial and longitudinal diffusion” value is “diffusion gradient in both longitudinal and radial directions away from the stent”; the “washout from the vessel wall” value is given as “rapid”. Further, in the series with carotid artery [7] (2 h), the “adventitia level in washout experiment, 2 hours” value is recorded as 1.7 ng/mg; the “media level in washout experiment, two hours” value turned out to be 1.2 ng FSK/mg tissue; the “other adjacent tissues level in washout experiment, two hours” value is under 0.6 ng/mg. In the series on carotid artery [7] (24 h), the adventitia level turned out to be 4.1±1.8 ng FSK/mg tissue; the “adventitia level in washout experiment, 24 hours” value is 0.1 ng/mg; the “adventitia tissue to blood ratio” value was 61±18; the media level was determined as 4.9±1.2 ng/mg tissue. Also, in the series with carotid artery [7] (24 h), the “media level in washout experiment, 24 hours” value was found to be 0.2 ng FSK/mg; the “media tissue to blood ratio” value worked out at 77±22; the “other adjacent tissues level in washout experiment, 24 hours” value is listed as under 0.1 ng/mg. For the same compound, the “in vivo release rate” value in [8] was determined as 7.0 µg/min. Also, in series [8] (in vivo), the “calculated instantaneous release rate into the bloodstream, initial” value is reported as 6900 ng/min; the “calculated instantaneous release rate into the bloodstream, over four hours” value is given as 700 ng/min; the “peak forskolin blood level” value came out at 140 ng/mL. For the same compound, in series [8] (in vivo, 0 min), the “immediate forskolin blood level” value is 57 ng/mL. Besides, in series [8] (in vivo, 24 h), the blood level was 68 ± 18 ng/mL.

In the case of `CCN(CC)c1ccc2c(-c3ccccc3C(=O)O)c3ccc(=[N+](CC)CC)cc-3oc2c1` [Rhodamine B], in series [3] (Coil, PBS, n = 3), the “Release Rate Day 1” value was found to be 37.0 µg/h, the “Release Rate Day 2” value was determined as 5.2 µg/h and the Total stood at 1.5 mg. For the same compound, the “initial release rate / release rate” value in [3] is on record as “highest initial release rate”.

As to heparin, in the series with intimal hyperplasia, the “intimal hyperplasia” value was “inhibited intimal hyperplasia”. Also, the “thrombosis on the catheter” value in series [9] is recorded as “sufficient to decrease thrombosis on the catheter”.

(Values after patent US5562922A, “Drug incorporating and release polymeric coating for bioprosthesis” (Cedars-Sinai Medical Center, priority 1995, dated 1996).)
